{
  "source": "patent US10226466B2",
  "about": "“Methods of treating fibrosis” (Pharmacyclics LLC, priority 2014, dated 2019)",
  "key": {"[1]": {"test_system": "p53^ER/ER;LSLKRas^G12D;pdx1-Cre mice", "assay": "Histology, immunohistochemistry and Picrosirius Red collagen staining of pancreata from PDAC model mice treated for 4 weeks", "format": "in vivo, mouse", "conditions": "for Collagen deposition (Picrosirius Red Staining): intraperitoneal daily injection of 10 mg per kg for 4 weeks from 8 weeks of age, compared to vehicle-treated control", "method": "(§1) For immunohistochemical analyses, tissue samples were fixed overnight in neutral pH-buffered formalin, embedded in paraffin and sectioned (5 μm). Sections were then deparaffinized, rehydrated and microwaved for 1 min in 0.01 M citrate buffer (pH 6.0) for antigen retrieval. Primary antibodies (rat monoclonal anti-CD11b (clone M1/70), eBioscience; rabbit monoclonal anti-Ki67 (clone SP6), Neomarkers) were applied for 2 h in blocking buffer (2.5% BSA, 5% goat serum and 0.3% Triton X-100 in PBS), followed by Vectastain ABC kit and DAB reagents (Vector Laboratories). Images were obtained with an Axiovert S100 TV inverted fluorescence microscope (Zeiss) and Open Lab 3.5.1 software, or with an Axiovert 100 inverted microscope (Zeiss) equipped with a Hamamatsu Orca digital camera. The mast cells were identified using 1% toluidine blue dissolved in ethanol. Picrosirius Red stain kit (Polysciences, Inc.) was used to stain for collagen Types I and III according to manufacturer instructions.\nFor all experiments, 8 week old male and female p53^ER/ER;LSLKRas^G12D;pdx1-Cre mice of mixed C57BL/6-FVB/N background were randomized into two groups: treated and control. Ibrutinib (0.16 mg/mL with 1% 2-Hydroxypropyl-beta-cyclodextrin (HP-β-CD)) was added to the drinking water of treated animals, and control animals received water containing vehicle only (1% HP-β-CD). Gemcitabine (75 mg/kg) was injected intraperitoneally twice a week for 3 weeks followed by a 1-week rest period. Sodium cromoglycate ([…]) was dissolved in saline solution and injected intraperitoneally, and control mice were treated with vehicle only. Endpoint criteria were defined as 20% body weight loss in addition to general morbidity and lethargy caused by tumor burden. Mice euthanized due to intestinal metaplasia or mucocutaneous papillomas caused by extrapancreatic KRAS^G12D expression were excluded from the survival study.\nA p53^ER/ER;LSLKRas^G12D;pdx1-Cre mouse model that harbors a Cre-activated KRasG12D allele inserted into the endogenous KRas locus combined with pancreas-specific PDX-1-driven Cre recombinase activity was used. The disruption of Trp53 signaling in combination with KRas mutation leads to rapid tumorigenesis and histopathological features typical of human pancreatic adenocarcinoma within only 8 weeks. At this stage the animals were treated with ibrutinib, at a dose of 25 mg/Kg/day added to their drinking water, or with vehicle control. The animals were euthanized 4 weeks later and their pancreata harvested for analysis. […] In stained, vehicle-treated mast cells, the cell borders were broken and the content of their granules were released. […] Reasons for this phenomenon can include the fact that several chemokines produced by mast cells, such as IL6, are known to be potent stimulants for monocytic cell migration and macrophage activation, so that inhibiting mast cells could prevent their recruitment.\nIn order to verify that this effect on fibrosis was specifically due to mast cell interference, two independent control experiments were performed. In the first experiment, sodium cromoglycate (cromolyn), a well-characterized blocker of mast cell degranulation and inflammogen release was used. The p53^ER/ER;LSLKRas^G12D ,pdx1-Cre mice were treated intraperitoneally (i.p.) with a daily injection of 10 mg per kg (bodyweight) of cromolyn, starting at 8 weeks of age. The animals were euthanized 4 weeks later and their pancreata analysed."}, "[2]": {"test_system": "p53^ER/ER;LSLKRas^G12D;pdx1-Cre mice", "assay": "Flow cytometry of single cell suspensions of PDAC tumors from treated mice", "format": "in vivo, mouse", "conditions": "ibrutinib 25 mg/Kg/day in drinking water, 4 weeks", "method": "Following resection, PDAC tumors isolated from PBS-perfused mice were immediately placed in ice-cold PBS, followed by manual mincing using scissors and a 20 min enzymatic digestion with 1.25 mg/mL collagenase type IV (Roche), 0.1% trypsin inhibitor, and 50 U/ml DNase I (Roche) in serum-free Dulbecco's Modified Eagle's Medium (DMEM) (Invitrogen) at 37° C. with continuous stirring. Single cell suspensions were then prepared by passing tissue through 70 μm nylon strainers (BD Biosciences). Cells were incubated for 30 min at 4° C. with rat anti-mouse CD16/CD32 mAb (1:250, clone 2.4G2, BD Bioscience) in PBS, which also contained Live/Dead Aqua stain (1:250, Invitrogen) to differentiate between viable and dead cells. Cells were then incubated for 30 min in PBS containing 1.0% BSA (Sigma) and 2 mM EDTA with 100 μl of fluorophore-conjugated anti-mouse antibodies (dilution; clone): PE-Cy7-CD45 (1:800; 30-F11), PerCp-Cy5.5-CD3e (1:400; 145-2C11), PerCp-Cy5.5-CD19 (1:200; 6D5), PerCp-Cy5.5-CD49b (1:400; DX5), Alexa 700-CD11b (1:400; M1/70), APC780-CD11c (1:200; N418), eFluor450-MHCII (1:800; M5/114.15.2), APC-Ly6C (1:800; HK1.4), PE-Ly6G (1:400; 1A8), and PE-Cy5-F4/80 (1:400; BM8) (eBioscience or Biolegend). Cells were then washed once in PBS containing 1.0% BSA (Sigma) and 2 mM EDTA, followed by fixation with BD Cytofix for 30 min on ice. […]"}, "[3]": {"test_system": "subcutaneous xenografts of a patient derived tumor in NOD/SCID mice", "assay": "Collagen deposition in subcutaneous xenografts of a patient-derived tumor (PDX) in NOD/SCID mice", "format": "in vivo, mouse", "conditions": "NOD/SCID mice with patient-derived xenograft, ibrutinib-treated vs untreated", "method": "as §1\nNOD/SCID mice were purchased from Charles River Laboratory. The anonymized human sample employed was part of the tissue biological material of the University Hospital Vall d'Hebron. […] Tumor size was evaluated weekly by caliper measurements and tumor volume calculated using the following formula: […]"}, "[4]": {"test_system": "p53^ER/ER;LSLKRas^G12D;pdx1-Cre mice", "assay": "Survival study in PDAC model mice (Kaplan-Meier, Log-rank test)", "format": "in vivo, mouse", "conditions": "treatment starting from 8 weeks of age; Log-rank p value=0.015", "quoted_text": "For all experiments, 8 week old male and female p53^ER/ER;LSLKRas^G12D;pdx1-Cre mice of mixed C57BL/6-FVB/N background were randomized into two groups: treated and control. Ibrutinib (0.16 mg/mL with 1% 2-Hydroxypropyl-beta-cyclodextrin (HP-β-CD)) was added to the drinking water of treated animals, and control animals received water containing vehicle only (1% HP-β-CD). Gemcitabine (75 mg/kg) was injected intraperitoneally twice a week for 3 weeks followed by a 1-week rest period. Sodium cromoglycate (10/kg) was dissolved in saline solution and injected intraperitoneally, and control mice were treated with vehicle only. Endpoint criteria were defined as 20% body weight loss in addition to general morbidity and lethargy caused by tumor burden. Mice euthanized due to intestinal metaplasia or mucocutaneous papillomas caused by extrapancreatic KRAS^G12D expression were excluded from the survival study.\nStatistical analysis was carried out by two-tailed Mann-Whitney test (for IHC counts), two tailed unpaired t-test (for flow cytometry data) and Log-Rank test (for Kaplan-Meier survival curves). […] Statistical analysis was performed using GraphPad Prism 4.\nTwo independent survival experiments were undertaken to test the therapeutic impact of ibrutinib alone and to assess ibrutinib in combination with gemcitabine."}, "mast cell": {"test_system": "mast cell", "conditions": "mouse model of insulinoma; background statement; cited from earlier work"}},
  "note": "Where “and” joins values, the source holds several entries; their conditions need not be identical. Equal entries are not always repeated. Entries after “also recorded” stand apart in the source; their conditions may differ.",
  "data": [
    {"smiles": "O=C(O)c1cc(=O)c2c(OCC(O)COc3cccc4oc(C(=O)O)cc(=O)c34)cccc2o1", "note": "[cromolyn, sodium cromoglycate, reference compound]", "values": [
      {"measurement": "Collagen deposition (Picrosirius Red Staining)", "setting": "[1]", "value": "reduced collagen deposition"},
      {"measurement": "Collagen deposition (Picrosirius Red Staining)", "setting": "[1]; listed as sodium cromoglicate", "value": "recapitulated the antifibrotic effect"}
    ]},
    {"smiles": "C=CC(=O)N1CCC[C@@H](n2nc(-c3ccc(Oc4ccccc4)cc3)c3c(N)ncnc32)C1", "note": "[ibrutinib, (R)-1-(3-(4-amino-3-(4-phenoxyphenyl)-1H-pyrazolo[3,4-d]pyrimidin-1-yl)piperidin-1-yl)prop-2-en-1-one]", "values": [
      {"measurement": "Ki67 positive (proliferating) cells in pancreata / proliferation rate", "setting": "[1]; ibrutinib 25 mg/Kg/day in drinking water for 4 weeks from 8 weeks of age, IHC, vehicle control 67.8%, p value=0.0016", "value": "14.9±7.0% and 14.9%"},
      {"measurement": "Mast cell degranulation in tumor stroma (toluidine blue staining)", "setting": "[1]; ibrutinib 25 mg/Kg/day in drinking water, 4 weeks", "value": "efficiently inhibited"},
      {"measurement": "Amount of collagen in tumors (Picrosirius Red Staining)", "setting": "[1]; ibrutinib 25 mg/Kg/day in drinking water, 4 weeks, compared to vehicle-treated animals", "value": "reduced the amount of collagen"},
      {"measurement": "CD11b positivity by immunohistochemistry", "setting": "[1]; ibrutinib 25 mg/Kg/day in drinking water, 4 weeks, compared to vehicle-treated mice", "value": "affected; also recorded: clear reduction of CD11b positivity"},
      {"measurement": "F4/80 positive macrophages (tumor-associated macrophages) by FACS analysis", "setting": "[2]; FIG. 1C right panel", "value": "significant reduction"},
      {"measurement": "CD11b+ cells by FACS analysis", "setting": "[2]; percent of total cells, FIG. 1C left panel", "value": "confirmed by FACS analysis"},
      {"measurement": "Collagen deposition / tissue fibrosis in tumor stroma (Picrosirius Red Staining)", "setting": "[3]", "value": "reduction in tissue fibrosis; also recorded: reduction of collagen deposition"},
      {"measurement": "Survival, monotherapy vs vehicle control", "setting": "[4]", "value": "significant survival advantage; also recorded: confers survival advantage"},
      {"measurement": "Systemic mast cell blocking", "setting": "mast cell", "value": "potent systemic mast cell blocker"}
    ]}
  ]
}
